Legend:
[1] = Thin layer electrophoresis (EP) of technetium-99m-labeled compounds; type: physicochemical; details: Table 16, Tc-99m-labeled; 50 mM phosphate buffer pH 7.4, 0.5 mA/cm, room temperature, 15 minutes
Protocol: ZI. Thin layer electrophoresis for Tc-99m-(BI-11c)
An appropriate amount of Tc-99m-(BI-11c) was spotted on an acetylated cellulose membrane and subjected to electrophoresis using 50 mM phosphate buffer (pH, 7.4) as an electrode buffer at a constant current of 0.5 mA/cm and at room temperature for 15 minutes. In the same manner as in ZH, the membrane was scanned to determine the distribution of radioactivity with a thin layer radioachromatoscanner.
In the same manner as in Example 8 ZF, ZG, ZH and ZI but using other polyaminedithiol compounds instead of Compound (11c), preparation of non-radioactive carriers and radioactive diagnostic agents was made. The optimum labeling conditions for the polyaminedithiol compounds were studied. Furthermore, the physical characteristics of the produced technetium-99m-labeled polyaminedithiol compounds were evaluated.

[2] = Biodistribution in rabbits: biological half life in the brain by gamma camera imaging; type: in vivo, Japanese white rabbits (male); details: for Biological half-life in brain, First phase / Biological half-life in brain, First phase (rate) / Biological half-life in brain, Second phase / Biological half-life in brain, Second phase (rate): rabbit, in vivo; for Accumulation in the cerebral parenchymal cells / biological half life in the brain, first phase / biological half life in the brain, second phase / rate of first phase of biological half life in the brain / rate of second phase of biological half life in the brain: rabbits, Example 10; for Accumulation in the cerebral parenchymal cells: imaging; for biological half life in the brain, first phase / biological half life in the brain, second phase / rate of first phase of biological half life in the brain / rate of second phase of biological half life in the brain: via the carotid artery
Protocol: Japanese white rabbits (male) were anesthetized with a pentobarbital solution (2.5 mg/kg), and Tc-99m(BI-11o) (0.2 ml, […]) was administered via the carotid artery under a gamma camera (GCA-90B, Toshiba Co., Ltd.). Then, imaging of 112 frames (30 seconds/frame) was made in minutes. A region of interest was drawn around brain on images, and the time-activitycurve of the brain was obtained.
It was thus concluded that the above examination procedure was suitable for evaluation of the accumulation in the brain and the disappearance from the brain.
In the same manner as in Example 10 using other technetium-99m-labeled polyaminedithiol compounds instead of Tc-99m-(BI-11o), their biodistribution in rabbits was examined, and their biological half-life in the brain was calculated.

[3] = tested on: normal cerebral parenchymal cells; details: in vivo; cited from earlier work

Compound	EP (Charge) [1]	Biological half-life in brain, First phase [2] [min]	Biological half-life in brain, First phase (rate) [2] [%]	Biological half-life in brain, Second phase [2] [min]	Biological half-life in brain, Second phase (rate) [2] [%]	Accumulation in the cerebral parenchymal cells [2]	biological half life in the brain, first phase [2] [minutes]	biological half life in the brain, second phase [2] [minutes]	rate of first phase of biological half life in the brain [2] [%]	rate of second phase of biological half life in the brain [2] [%]	accumulation in normal cerebral parenchymal cells [3]
CCCCCNCC(NCCNCC(C)(C)S)C(C)(C)S (centres unmarked) [Compound 11d, N-(2-Mercapto-2-methylpropyl)-N' -(1-n-amylaminomethyl-2-mercapto-2-methylpropyl)ethylenediamine]	.smallcircle.	18	32	184	68						
CC(C)(S)CNCCNC(CN1CCCCC1)C(C)(C)S (centres unmarked) [Compound 11g, N-(2-Mercapto-2-methylpropyl)-N' -(2-mercapto-2-methyl-1-piperidino-methylpropyl)ethylenediamine]		5	23	60	77						
CC(C)(S)CNCCNC(CN1CCNCC1)C(C)(C)S (centres unmarked) [Compound 11h, N-(2-Mercapto-2-methylpropyl)-N'-(2-mercapto-2-methyl-1-piperazinomethylpropyl)ethylenediamine]		1	44	40	56						
CN1CCN(CC(NCCNCC(C)(C)S)C(C)(C)S)CC1 (centres unmarked) [Compound 11i, N-(2-Mercapto-2-methylpropyl)-N' -[2-mercapto-2-methyl-1-(4-methyl-piperazino)methylpropyl]ethylene-diamine]		8	50	686	50						
CC(C)(S)CNCCNC(CN1CCOCC1)C(C)(C)S (centres unmarked) [Compound 11k, N-(2-Mercapto-2-methylpropyl)-N' -(2-mercapto-2-methyl-1-morpholino-methylpropyl)ethylenediamine]		4	39	21	61						
CCCC(C)NCC(NCCNCC(C)(C)S)C(C)(C)S (centres unmarked) [Compound 11l, N-(2-Mercapto-2-methylpropyl)-N' -[1-(1-methylbutylamino)-methyl-2-mercapto-2-methylpropyl]ethylene-diamine]		11	34	132	66						
CCCCCCNCC(NCCNCC(C)(C)S)C(C)(C)S (centres unmarked) [Compound 11m, N-(2-Mercapto-2-methylpropyl)-N' -(1-n-hexylaminomethyl-2-mercapto-2-methylpropyl)ethylenediamine]	.smallcircle.	3	24	58	76						
CCCCN(CC)CC(NCCNCC(C)(C)S)C(C)(C)S (centres unmarked) [Compound 11n, N-(2-Mercapto-2-methylpropyl)-N' -[1-(N-butyl-N-ethylamino)-methyl-2-mercapto-2-methylpropyl]ethylenediamine]		17	42	198	58						
CC1CCN(CC(NCCNCC(C)(C)S)C(C)(C)S)CC1 (centres unmarked) [Compound 11p, N-(2-Mercapto-2-methylpropyl)-N'-[2-mercapto-2-methyl-1-(4-methylpiperidino)methylpropyl]ethylenediamine]	.smallcircle.	3	18	83	82						
CC(C)(S)CNCCNC(CN1CCCC1)C(C)(C)S (centres unmarked) [Compound 11r, N-(2-Mercapto-2-methylpropyl)-N'-(2-mercapto-2-methyl-1-pyrrolidinomethylpropyl)ethylenediamine]		3	28	36	72						
CC(C)(S)CNCCNC(CN1CCN(Cc2ccccc2)CC1)C(C)(C)S (centres unmarked) [Compound 11w, N-(2-Mercapto-2-methylpropyl)-N'-[1-(4-benzylpiperazino)methyl-2-mercapto-2-methylpropyl]ethylenediamine]	.smallcircle.	13	60	144	40						
CC(C)(S)CNCCNC(CN1CCC(c2ccccc2)CC1)C(C)(C)S (centres unmarked) [Compound 11x, N-(2-Mercapto-2-methylpropyl)-N'-[2-mercapto-2-methyl-1-(4-phenylpiperidino)methylpropyl]ethylenediamine]	.smallcircle.	10	46	150	54						
CC(C)(S)C(CNCCN1CCOCC1)NCCNC(CNCCN1CCOCC1)C(C)(C)S (centres unmarked) [Compound 14r, N,N' -Bis[2-mercapto-2-methyl-1-(2-morpholinoethylamino)methylpropyl]-ethylenediamine]	.smallcircle.										
CC(C)(S)C(CNCCCN1CCOCC1)NCCNC(CNCCCN1CCOCC1)C(C)(C)S (centres unmarked) [Compound 14s, N,N'-Bis[2-mercapto-2-methyl-1-(3-morpholinopropylamino)methyl-propyl]ethylenediamine]	.smallcircle.										
CCCCSC(C)(C)CNCCNC(CN1CCC(C)CC1)C(C)(C)S (centres unmarked) [Compound 33, N-(2-Butylthio-2-methylpropyl)-N'-[2-mercapto-2-methyl-1-(4-methylpiperidino)methylpropyl]-ethylenediamine]	.smallcircle.	7	26	148	74						
CC(C)NC(C)Cc1ccc([123I])cc1 (centres unmarked) [Compound I-123-IMP, N-isopropyl-2-methyl-p-iodo(I-123)-phenethylamine, reference compound]						observed	71	98	39	61	
O=C([O-])CN(CCN(CC(=O)[O-])CC(=O)[O-])CCN(CC(=O)[O-])CC(=O)[O-].[99Tc+4] [^99m Tc-DTPA, ^99m Tc-labeled diethylenetriaminepentaacetic acid, reference compound]						no accumulation was seen	2	18	75	25	not accumulating
